Data: patent publication US12295937B2, “Psychoactive medicines and their use for treating psychiatric and neurological conditions and disorders” (Transcend Therapeutics, Inc., priority 2021, dated 2025)

Assays:
Open field test (OFT) = format: in vivo, rat; details: 0.5-30 mg/kg IP, 30 minutes before 30-min test
Method: Method: Consecutive beam breaks and/or video-tracking of time spent in the center versus periphery of the open field are measured. Also measured are parameters such as distance traveled and ambulatory activity (horizontal and vertical) for the duration of the test session.
The open field test (OFT) capitalizes on a rodent's innate fear of open spaces to assess anxiety-like behavior. More time spent in the center of an open field reflects an anxiolytic (anti-anxiety) effect.
Locomotor activity was also measured in the OFT.
To investigate whether MBDB has an anti-anxiety (anxiolytic) effect, rats were dosed with MBDB (0.5-30 mg/kg, IP) or vehicle (saline) and 30-minutes later were tested in the open field for 30 minutes. This anxiety test capitalizes on a rodents' innate fear of wide-open spaces and propensity to hug the walls when placed into the open field. Therefore, a drug that increases the time spent in the center of the open field has anxiolytic activity and predicts utility for treating anxiety in humans.

[1] = Mouse fear extinction paradigm (PTSD model); format: in vivo; details: 5 mg/kg IP, day 2
Source text: (FIG. 9A) Schematic of experimental design. A single CS-US (tone-shock) pairing on day 1 was followed by 6 CS presentations in a novel context (context B). […] On day 3, the time spent freezing to the CS was quantified. […] (FIG. 9C) No locomotor changes were observed on day 3 (t(26)=1.073, p>0.05). Data are mcan+/−SEM.
FIGS. 10A-10B: MBDB improves fear extinction in a PTSD mouse model. A single CS-US (tone-shock) pairing on day 1 was followed by 6 conditioned stimulus (CS) presentations in a novel context (context B). MBDB or saline vehicle was injected 30 min prior to extinction training on day 2. The time spent freezing to the CS was quantified on day 2. […] Data are mean+/−SEM. N=10 for MBDB group (5 mg/kg, IP) and N=16 for saline control group. **p<0.01 vs. vehicle control group.
Effective PTSD treatments facilitate the disassociation between a traumatic memory and the patient's fear response, making cues for the traumatic memory evoke less of a fear response. This is modeled in the mouse fear extinction paradigm (see FIG. 9A) which takes place over 3 days. […] On day 3 (extinction recall), the mice are “asked” if that tone (CS) still elicits a fearful response, as measured by the time spent freezing when the tone is presented. […]

[2] = Rat Forced Swim Test (FST); format: in vivo
Source text: The Forced Swim Test (FST) is a classic, and the most used preclinical behavioral assay to screen compounds with antidepressant-like activity and has high predictive and face validity (Porsolt et al. (1977) Nature 266:730; Borsini and Meli (1988) Psychopharmacology 94:147). The premise of the FST is that when rats are placed into a cylinder filled with water, they will initially try to escape, but over time will become immobile. This increased immobility reflects behavioral despair, modeling a depressive-like state.
Forced Swim Test (EST): In the FST trial, rats were placed in a circular plexiglass container filled with water, with no means of escape. Water temperature was maintained at 22-25° C. and changed for every animal. After an acclimation period, rats were timed for inactivity (failure to struggle), activity, swim time and climbing time. Day 1 consisted of a 15 min acclimation trial, and Day 2 (24 h later) consisted of the 5 min test. A time sampling procedure was employed where animals were observed every 5 sec and scored for immobility, swimming, or climbing. Fluoxetine (10 mg/kg, IP, Sigma Aldrich) or 0.9% sterile saline vehicle (vehicle 3× group) were administered 23.5, 5, and 1 h before testing in the FST. […] The experimenter was blinded to treatment.
Forced Swim Test: In the FST trial, rats were placed in a circular plexiglass container filled with water, with no means of escape. Water temperature was maintained at 22-25° C. and changed for every animal. After an acclimation period, rats were timed for inactivity (failure to struggle), activity, swim time and climbing time. Day 1 consisted of a 15 min acclimation trial, and Day 2 (24 h later) consisted of the 5 min test. A time sampling procedure was employed where animals were observed every 5 sec and scored for immobility, swimming, or climbing. Fluoxetine (10 mg/kg, IP, Sigma Aldrich) or 0.9% sterile saline vehicle (vehicle 3× group) were administered 23.5, 5, and 1 h before testing in the FST. 2C-B (2.5, 10, or 20 mg/kg, IP, Cayman Chemical) or 0.9% saline vehicle (vehicle 1× group) were administered 30 min prior to FST testing. The experimenter was blinded to treatment.
Drug Treatment: Fluoxetine (10 mg/kg, IP, Sigma Aldrich) or 0.9% sterile saline vehicle were administered 23.5, 5, and 1 h before testing in the FST. […] Control animals received fluoxetine alone, methylone alone, or saline vehicle.
Forced Swim Test: In the FST trial, rats were placed in a circular plexiglass container filled with water, with no means of escape. Water temperature was maintained at 22-25° C. and changed for every animal. After an acclimation period, rats were timed for inactivity (failure to struggle), activity, swim time and climbing time. The experimenter and scorer were blind to treatment group. Day 1 consisted of a 15 min acclimation trial, and Day 2 (24 h later) consisted of the 5 min test. A time sampling procedure was employed where animals were observed every 5 sec and scored for immobility, swimming, or climbing.
The FST was performed and scored by an experimenter blind to treatment group according to standard protocols and based on a “modified FST” procedure (Slattery and Cryan (2012) Nat Protoc, 7:1009). Briefly, rats were placed in a circular plexiglass container (29.2 cm diameter, 49.5 cm height) filled with water to a depth of 30 cm so rats could not support themselves by touching the bottom of the tank. Water was maintained at 22-25° C. and was changed for every animal. Day 1 (Training) consisted of a 15 min acclimation trial, and Day 2 (Testing, 24 h later) consisted of the 5 min test. A time sampling procedure was employed where animals were observed every 5 seconds for the duration of the test session (60 counts or 5 minutes) and scored for immobility (defined as the failure to struggle), swimming (defined as a circular movement around the tank), or climbing (defined as an upwards escape behavior). […]

5-HT/5-HIAA uptake sites = details: (±)-MBDB·HCl 25 mg/kg IP every 12 hours for 4 days; cited from earlier work
[3] = Reserpine-induced fibromyalgia model, vonFrey test; format: in vivo, rat; details: 2C-B 10 and 20 mg/kg; 60-min post-injection
Method: In this Example, male Sprague Dawley rats are tested in a behavioral model of FMA based on the protocol from Nakagura et al. (2009) Pain 146:26. This model uses three daily doses of reserpine (1 mg/kg, SC) or 0.5% acetic acid vehicle to reduce pain thresholds (i.e., increase pain perception) in the Von Frey Test (vFT, procedure outlined below).
Von Frey Test (vFT) procedure: Increasing pain thresholds in this test are consistent with a reduction in pain perception. Prior to the start of dosing, rats are tested for their baseline mechanical pain threshold. For von Frey measurements, animals are placed into wire bottom cubicles with opaque Plexiglas walls, allowing access to the underside of their paws. Animals are habituated to this environment for at least 30 minutes before the start of the von Frey filament application. Static allodynia is measured using Semmes-Weinstein von Frey filaments (Stoelting, Wood Dale, IL). Mechanical allodynia is tested by touching the plantar surface of the animals' left and right hind paws with von Frey filaments which deliver a calibrated amount of force. Each von Frey filament is presented perpendicularly to the plantar surface for approximately 6 seconds of constant application in either ascending or descending strength in a modified up-and-down method (Chaplan et al. (1994) J Neurosci. Meth. 53:55). Stimulation is presented at intervals of several seconds, allowing for apparent resolution of any behavioral responses to previous stimuli. A positive response is noted if the paw is sharply withdrawn. Flinching immediately upon removal of the hair is also considered a positive response. Ambulation is considered an ambiguous response, and, in such cases, the stimulus is repeated.
VonFrey measurements: Animals were placed into wire bottom cubicles with opaque Plexiglas walls, allowing access to the underside of their paws. […] Static allodynia was measured using Semmes-Weinstein von Frey filaments (Stoelting, Wood Dale, IL). […] The average hindpaw thresholds were determined 60-min post-injection. […]

[4] = Cisplatin chemotherapy-induced peripheral neuropathy (CIPN) model, VonFrey test; format: in vivo, mouse
Method: Methods: Male C57Bl/6 mice aged 12-16 weeks were used. Cisplatin (2.5 mg/kg) or vehicle was administered on days 1-5 and 11-15.
Vehicle, sub-chronic 2C-B (5 mg/kg once daily days 17-23) or acute 2C-B (20 mg/kg once on day 17) was then administered IP (N=16-18/group). VonFrey testing took place on day 17 (30 min post-dose) and days 21 and 24 (pre-dose) to monitor the effects of 2C-B in cisplatin treated animals, compared with animals receiving cisplatin+vehicle or vehicle+vehicle.
For von Frey measurements, animals were placed into wire bottom cubicles with opaque Plexiglas walls, allowing access to the underside of their paws. Animals were habituated to this environment for at least 30 minutes before the start of the von Frey filament application. Static allodynia was measured using Semmes-Weinstein von Frey filaments (Stoelting, Wood Dale, IL). Mechanical allodynia was tested by touching the plantar surface of the animals' right and left hind paws with von Frey filaments which deliver a calibrated amount of force (0.07, 0.16, 0.4, 0.6. 1.0, 2.0, 4.0, 6.0 g). Each von Frey filament was presented perpendicularly to the plantar surface for approximately 6 seconds of constant application in either ascending or descending strength in a modified up-and-down method (Chaplan et al. (1994) J Neurosci. Meth. 53:55). […]

[5] = previous reports (Hibicke 2020; Yang 2013; Tizabi 2012); cited from earlier work
[6] = molecular target: Human serotonin 5HT2B receptor (Homo sapiens, UniProt P41595); experiment: Competitive radioligand binding to 5HT2B receptor membranes
Human serotonin 5HT2B receptor, sequence (P41595 whole entry): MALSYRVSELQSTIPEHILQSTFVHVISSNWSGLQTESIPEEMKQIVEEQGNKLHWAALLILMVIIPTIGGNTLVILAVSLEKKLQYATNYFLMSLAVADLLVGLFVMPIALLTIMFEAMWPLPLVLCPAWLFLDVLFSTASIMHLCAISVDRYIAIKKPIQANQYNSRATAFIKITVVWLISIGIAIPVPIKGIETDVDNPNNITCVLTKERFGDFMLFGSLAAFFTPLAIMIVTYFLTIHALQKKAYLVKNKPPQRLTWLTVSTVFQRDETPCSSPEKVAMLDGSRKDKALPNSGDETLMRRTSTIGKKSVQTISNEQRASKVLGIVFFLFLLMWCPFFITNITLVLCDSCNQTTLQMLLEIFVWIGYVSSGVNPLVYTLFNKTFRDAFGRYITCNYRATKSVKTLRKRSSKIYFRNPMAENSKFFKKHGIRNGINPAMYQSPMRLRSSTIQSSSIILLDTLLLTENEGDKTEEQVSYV
Method: Human serotonin 5HT2B receptor membrane preparations were divided into aliquots. On the day of the assay, membranes were diluted at 1:200 in incubation buffer. […] To each well was added 150 μL membrane preparation, 50 μL test compound, non-specific compound, or buffer alone, as well as 50 μL radioligand. The plate was incubated at 35° C. for 90 minutes with gentle agitation. […] For each concentration of drug, non-specific binding was subtracted from total binding to give specific binding. […] Ki was subsequently calculated using the ChengPrusoff equation.

CCC(Cc1ccc2c(c1)OCO2)NC (racemic) [MBDB, N-methyl-1-(1,3-benzodioxol-5-yl)-2-aminobutane]
Increase in time spent in the center vs. control (Open field test (OFT)): ~40% | Extinction acquisition [1]: improved extinction acquisition on the first trial of extinction training on day 2 | Immobility ([2]; 5-30 mg/kg IP, 30 min before test): significantly reduced immobility | Serotonergic terminals in cortex and hippocampus destroyed (5-HT/5-HIAA uptake sites): 55-60%

COc1cc(CCN)c(OC)cc1Br [2C-B, 4-Bromo-2,5-dimethoxyphenethylamine]
Animals with maximal (complete) reversal of reserpine-induced pain sensitivity [3]: 100% | Climbing behavior ([2]; doses as worded): Climbing was significantly decreased only in the high-dose group | Swimming behavior ([2]; doses as worded): significant increase in swimming | Effect of repeated doses ([4]; 5 mg/kg once daily days 17-23): sustained beneficial effect | Pain thresholds in cisplatin-treated animals ([4]; single dose 5 or 20 mg/kg IP, day 17): Pain thresholds were significantly increased within 30 min of a single dose

CNCC[C@H](Oc1cccc2ccccc12)c1cccs1 [Duloxetine, reference compound]
Animals with maximal (complete) reversal of reserpine-induced pain sensitivity [3]: 44%

CCN(CC)C(=O)[C@@H]1C=C2c3cccc4[nH]cc(c34)C[C@H]2N(C)C1 [LSD, lysergic acid-N,N-diethylamide]
Reduction in immobility in the FST [5]: 38%

CC(N)Cc1ccc2c(c1)OCO2 (stereo not shown) [MDA, reference compound]
Times greater affinity for the 5HT2B receptor compared with methylone [6]: 37 times

CNCCC(Oc1ccc(C(F)(F)F)cc1)c1ccccc1 (stereo not shown) [fluoxetine, reference compound]
Swimming behavior ([2]; doses as worded): significantly increased swimming behavior
